What all share (format): in vivo
In one test the test system is Phytophthora infestans. Kind of test: whole plant or invertebrate. Particulars: in Solanum lycopersicum, 168 h, read-out: % Control TLB.
Test [1] relates to Alternaria solani conidia. Kind of test: Tomato Early Blight control (Example D). Particulars: 288 h, tomato seedlings, Bonny Best, inoculated 1 day after spray, relative to untreated check plants, read-out: % Control TEB. As to the method:
Compounds of the invention were tested for the control of the Tomato Early Blight organism Alternaria solani conidia. Tomato (variety Bonny Best) seedlings of 6- to 7-weeks old were used. The tomato plants were sprayed with a 250-ppm solution of the test compound in an acetone-and-water solution containing a small amount of a nonionic emulsifier. The sprayed plants were inoculated 1 day later with the organism, placed in the environmental chamber and incubated at 66° F. to 68° F. and 100% relative humidity for 24 hours. Following the incubation, the plants were maintained in a greenhouse for about 12 days. Percent disease control was based on the percent disease development on untreated check plants.

The subject of a further test is Piricularia oryzae. Description: whole plant or invertebrate. Particulars: Pyricularia oryzae, read-out: % Control RB.
The test system of another test is Plasmopara viticola. Description: Grape Downy Mildew control (Example E). Particulars: detached grape leaves, cultivar Emperor, relative to untreated check plants, read-out: % Control GDM. The method, then:
The compounds of the invention were tested for the control of the Grape Downy Mildew organism Plasmopara viticola. Detached leaves, between 70 mm and 85 mm in diameter, 7-week-old Vitis vinifera cultivar Emperor grape seedlings were used as hosts. The leaves were sprayed with a 250-ppm solution of the test compound in acetone. The sprayed leaves were dried, inoculated with a spore suspension of the organism, placed in a humid environmental chamber and incubated at 66° F. to 68° F. and about 100% relative humidity. After incubation for 2 days, the plants were then held in a greenhouse 7 to 9 days; then the amount of disease control was determined. The percent disease control provided by a given test compound was based on the percent disease reduction relative to untreated check plants.

For another test, the system named is Septoria apii. Kind of test: whole plant or invertebrate. Particulars: 336 h, read-out: % Control CLB.
Another test deals with Uromyces phaseoli tipica. Description: Leaf Rust / Bean Rust control (Example F). The following applies: 336 h, pinto bean plants, rated after about 14 days, relative to untreated check plants, read-out: % Control BR. As to the method:
The Leaf Rust test was made using pinto beans. The pathogen was Uromyces phaseoli tipica. The pinto bean plants were sprayed with a 250-ppm solution of the test compound in an acetone-water mixture containing a nonionic emulsifier. The treated plants were inoculated thereafter with the pathogen and then incubated in an environmental chamber for approximately 20 hours at 100% relative humidity and a temperature of 68° F. to 70° F. The plants were then removed from the chamber, allowed to dry, and then maintained in a greenhouse at a 60% to 80% relative humidity. The rate of infection on the leaves was made after about 14 days. The percent disease control provided by a given test compound was based on the percent disease reduction relative to untreated check plants.

The next test concerns Erysiphe polygoni. Kind of test: Bean Powdery Mildew control (Example A). Particulars: 240 h, seedling bean plants, inoculated 1 day after spray, 10 days, relative to untreated check plants, read-out: % Control BPM. As to the method:
The compounds of the invention were tested for the control of the Bean Powdery Mildew organism Erysiphe polygoni. Seedling bean plants were sprayed with a 250-ppm solution of the test compound in acetone, water and a nonionic emusifier. The sprayed plants were then inoculated 1 day later with the organism. The plants were maintained for 10 days at temperatures of 68° F. at night with daytime temperatures of 72° F. to 80° F.; relative humidity was maintained at 40% to 60%. The percent disease control provided by a given test compound was based on the percent disease reduction relative to the untreated check plants.

This passage reports pest or weed control results from patent US4782074A (priority 1987, dated 1988).

Molecules are shown by their SMILES.

As for `CCCN(CCOc1c(Cl)cc(Cl)cc1Cl)C(=O)c1ccncc1` [Compound 10], the pest or weed control at 250 ppm came to 11% in the test with Phytophthora infestans; 32% in test [1]; 9% in the test on Plasmopara viticola; 0% in the test on Septoria apii; 29% in the test with Uromyces phaseoli tipica; 0% with Erysiphe polygoni. For the same compound, the pest or weed control at 625 ppm in the test on Piricularia oryzae stood at 0%.

On to `CCCN(CCOc1c(Cl)cc(Cl)cc1Cl)C(=O)c1cnccn1` [Compound 3, N-(n-propyl), N-(2-pyrazinylcarbonyl)ethanolamine 2,4,6-trichlorophenylether], for which the pest or weed control at 250 ppm is 0% in the test with Phytophthora infestans; 94% in test [1]; 13% in the test with Plasmopara viticola; 62% in the test with Septoria apii; 19% in the test on Uromyces phaseoli tipica; 100% in the test on Erysiphe polygoni. Further, the pest or weed control at 625 ppm in the test with Piricularia oryzae was found to be 75%.

As to `CCCN(CCOc1c(Cl)cc(Cl)cc1Cl)C(=S)c1cccnc1` [Compound 17, N-(n-propyl), N-(3-pyridylthiocarbonyl)ethanolamine 2,4,6-trichlorophenylether], the pest or weed control at 250 ppm in the test on Phytophthora infestans came to 0%; in test [1], 87%; in the test on Plasmopara viticola, 4%; in the test on Septoria apii, 62%; with Uromyces phaseoli tipica, 0%; in the test with Erysiphe polygoni it was 100%. Besides, the pest or weed control at 625 ppm with Piricularia oryzae came out at 100%.

For `CCCN(CCCOc1c(Cl)cc(Cl)cc1Cl)C(=O)c1cccnc1` [Compound 19], the pest or weed control at 250 ppm in the test with Phytophthora infestans amounted to 10%; in test [1], 0%; with Plasmopara viticola, 30%; in the test on Septoria apii, 38%; in the test on Uromyces phaseoli tipica it was 0%; in the test on Erysiphe polygoni, 70%. In the test on Piricularia oryzae, the pest or weed control at 625 ppm was 96%.

On to `CCCN(CCOc1c(Cl)cc(Cl)cc1Cl)C(=O)c1cccnc1` [Compound 1, N-(n-propyl), N-(3-pyridylcarbonyl)ethanolamine 2,4,6-trichlorophenylether], for which the pest or weed control at 250 ppm turned out to be 0% in the test on Phytophthora infestans; 96% in test [1]; 50% in the test with Plasmopara viticola; 46% in the test on Septoria apii; 0% in the test on Uromyces phaseoli tipica; 100% in the test on Erysiphe polygoni. Also, the pest or weed control at 625 ppm in the test with Piricularia oryzae was found to be 86%.

Regarding `CCCN(CCCc1c(Cl)cccc1Cl)C(=O)c1cnccn1` [Compound 25], the pest or weed control at 250 ppm is 0% with Phytophthora infestans; 29% in test [1]; 0% in the test on Plasmopara viticola; 8% with Septoria apii; 0% with Uromyces phaseoli tipica; 28% with Erysiphe polygoni. Besides, in the test on Piricularia oryzae, the pest or weed control at 625 ppm came out at 0%.

`CCCN(CCOc1c(C)cc(C)cc1C)C(=O)c1cncnc1` [Compound 16]: the pest or weed control at 250 ppm with Phytophthora infestans came out at 0%; in test [1], 83%; in the test with Plasmopara viticola, 7%; with Septoria apii it was 38%; with Uromyces phaseoli tipica, 0%; with Erysiphe polygoni, 50%. Moreover, in the test on Piricularia oryzae, the pest or weed control at 625 ppm was determined as 36%.

With `CCN(CCOc1c(Cl)cc(Cl)cc1Cl)C(=O)c1cccnc1` [Compound 35], the pest or weed control at 250 ppm in the test on Phytophthora infestans was 0%; in test [1], 30%; in the test on Plasmopara viticola it was 41%; in the test on Septoria apii, 98%; with Uromyces phaseoli tipica, 0%; with Erysiphe polygoni, 100%. In the test with Piricularia oryzae, the pest or weed control at 625 ppm was 96%.

For the compound `CCCN(CCCc1c(Cl)cccc1Cl)C(=O)c1cccnc1` [Compound 22, N-[3-(2,6-dichlorophenyl)propyl], N-(n-propyl)nicotine amide], the pest or weed control at 250 ppm in the test on Phytophthora infestans amounted to 0%; in test [1], 88%; in the test on Plasmopara viticola, 7%; with Septoria apii it was 38%; with Uromyces phaseoli tipica, 0%; in the test on Erysiphe polygoni, 44%. In the test with Piricularia oryzae, the pest or weed control at 625 ppm was determined as 0%.

Turning to `CCCN(C(=O)c1cccnc1)C(C)COc1c(Cl)cc(Cl)cc1Cl` (centres unmarked) [Compound 20, N-(n-propyl), N-(3-pyridylcarbonyl)propanol-2-amine 2,4,6-trichlorophenylether], the pest or weed control at 250 ppm came to 0% in the test with Phytophthora infestans; 7% with Plasmopara viticola; 0% in the test with Septoria apii; 23% with Uromyces phaseoli tipica; 93% with Erysiphe polygoni. In addition, in the test on Piricularia oryzae, the pest or weed control at 625 ppm turned out to be 0%.

Take `CCCN(CCOc1ccc(C(C)(C)C)cc1)C(=O)c1cnccn1` [Compound 5]: the pest or weed control at 250 ppm in the test on Phytophthora infestans amounted to 0%; in test [1], 36%; with Plasmopara viticola it was 28%; in the test with Septoria apii it was 17%; in the test on Uromyces phaseoli tipica, 0%; in the test with Erysiphe polygoni, 94%.

As for `CCCN(CCOc1c(Cl)cc(Cl)cc1Cl)C(=S)c1cnccn1` [Compound 18], the pest or weed control at 250 ppm with Phytophthora infestans came to 0%; with Plasmopara viticola, 43%; with Septoria apii, 85%; with Uromyces phaseoli tipica, 0%; in the test with Erysiphe polygoni it was 54%.

With `CCCN(Cc1c(Cl)cccc1Cl)C(=O)c1cccnc1` [Compound 29], the pest or weed control at 250 ppm turned out to be 0% with Phytophthora infestans; 50% in test [1]; 27% with Plasmopara viticola; 0% in the test with Septoria apii; 0% in the test with Uromyces phaseoli tipica; 48% with Erysiphe polygoni.

With `CCCN(CCOc1c(Cl)cccc1Cl)C(=O)c1cncnc1` [Compound 13], the pest or weed control at 250 ppm with Phytophthora infestans was 4%; in test [1] it was 97%; with Plasmopara viticola, 10%; in the test on Septoria apii, 80%; in the test on Uromyces phaseoli tipica, 0%; with Erysiphe polygoni it was 81%.

As to `CCCN(C(=O)c1cnccn1)C(C)COc1c(Cl)cc(Cl)cc1Cl` (centres unmarked) [Compound 21, N-(n-propyl), N-(2-pyrazinylcarbonyl)propanol-2-amine 2,4,6-trichlorophenylether], the pest or weed control at 250 ppm in the test on Phytophthora infestans was 0%; in the test on Plasmopara viticola it was 67%; in the test on Septoria apii it was 0%; with Uromyces phaseoli tipica, 23%; with Erysiphe polygoni it was 71%. Further, in the test on Piricularia oryzae, the pest or weed control at 625 ppm worked out at 0%.

Turning to `CCCN(CCOc1ccc(C(C)(C)C)cc1)C(=O)c1cccnc1` [Compound 6], the pest or weed control at 250 ppm with Phytophthora infestans was found to be 10%; in test [1], 50%; in the test on Plasmopara viticola, 0%; with Septoria apii, 0%; in the test with Uromyces phaseoli tipica, 0%; with Erysiphe polygoni, 98%.
